# Data: patent US9446130B2, “BTK inhibitors” (MERCK SHARP & DOHME CORP., priority 2013, dated 2016)
# Target: BTK enzyme (hBTK, full-length recombinant) (Homo sapiens (Human), UniProt Q06187)
# Test: Btk enzyme activity assay, Method B: LANCE TR-FRET
# Type: biochemical
# Details: 25 μM ATP, 60 minute compound & enzyme incubation
# Experimental: Also BTK enzymatic activity was determined with the LANCE (Lanthanide Chelate Excite) TR-FRET (Time-resolved fluorescence resonance energy transfer) assay. […] The final reaction in each well of 10 μL consists of 100 pM hBTK, 2 μM biotin-A5-peptide, and 25 μM ATP. Phosphorylation reactions were allowed to proceed for 120 minutes. […] After 60 minutes incubation with detection reagents, reaction plates were read on a PerkinElmer EnVision plate reader using standard TR-FRET protocol. Briefly, excitation of donor molecules (Eu-chelate:anti-phospho-antibody) with a laser light source at 337 nm produces energy that can be transferred to Dylight-650 acceptor molecules if this donor:acceptor pair is within close proximity. Fluorescence intensity at both 665 nm (acceptor) and 615 nm (donor) are measured and a TR-FRET ratio calculated for each well (acceptor intensity/donor intensity). IC50 values were determined by 4 parameter robust fit of TR-FRET ratio values vs. (Log10) compound concentrations. BTK enzymatic activity was determined with the LANCE (Lanthanide Chelate Excite) TR-FRET (Time-resolved fluorescence resonance energy transfer) assay. […] The final reaction in each well of 10 μL consists of 50 pM hBTK, 2 μM biotin-A5-peptide, and 25 μM ATP. Phosphorylation reactions were allowed to proceed for 120 minutes. […] After 60 minutes incubation with detection reagents, reaction plates were read on a PerkinElmer EnVision plate reader using standard TR-FRET protocol. Briefly, excitation of donor molecules (Eu-chelate:anti-phospho-antibody) with a laser light source at 337 nm produces energy that can be transferred to Dylight-650 acceptor molecules if this donor:acceptor pair is within close proximity. Fluorescence intensity at both 665 nm (acceptor) and 615 nm (donor) are measured and a TR-FRET ratio calculated for each well (acceptor intensity/donor intensity). IC50 values were determined by 4 parameter robust fit of TR-FRET ratio values vs. (Log10) compound concentrations.
# Chain of BTK enzyme (hBTK, full-length recombinant) (Q06187 whole entry): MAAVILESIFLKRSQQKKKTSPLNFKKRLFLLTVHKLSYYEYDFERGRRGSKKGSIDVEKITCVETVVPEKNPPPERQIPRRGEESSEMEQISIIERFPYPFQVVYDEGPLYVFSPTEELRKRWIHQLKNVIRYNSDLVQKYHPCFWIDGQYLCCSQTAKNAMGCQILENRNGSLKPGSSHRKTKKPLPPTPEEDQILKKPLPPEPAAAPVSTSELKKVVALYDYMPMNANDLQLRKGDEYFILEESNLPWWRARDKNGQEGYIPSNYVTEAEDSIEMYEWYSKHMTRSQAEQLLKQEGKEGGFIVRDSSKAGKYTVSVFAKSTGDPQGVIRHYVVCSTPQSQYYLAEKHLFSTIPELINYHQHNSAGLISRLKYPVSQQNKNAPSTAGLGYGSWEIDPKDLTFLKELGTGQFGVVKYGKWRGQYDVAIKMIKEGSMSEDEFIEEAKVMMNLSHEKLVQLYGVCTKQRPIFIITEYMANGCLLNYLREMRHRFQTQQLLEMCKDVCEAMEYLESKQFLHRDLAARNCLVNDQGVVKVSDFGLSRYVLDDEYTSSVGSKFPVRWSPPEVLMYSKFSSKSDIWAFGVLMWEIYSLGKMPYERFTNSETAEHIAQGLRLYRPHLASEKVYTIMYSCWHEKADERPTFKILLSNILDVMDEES
row,SMILES,IC50 [nM]
1,"CCn1ncc2c1CCC[C@@H]2n1nc(-c2ccc(C(=O)Nc3cc(C(F)(F)F)ccn3)cc2)c2c(N)ncnc21 [Example 13, (S)-4-(4-amino-1-(1-ethyl-4,5,6,7-tetrahydro-1H-indazol-4-yl)-1H-pyrazolo[3,4-d]pyrimidin-3-yl)-N-(4-(trifluoromethyl)pyridin-2-yl)benzamide]",5.9
2,"Nc1nccn2c([C@@H]3CCCn4c(C5CC5)nnc43)nc(-c3ccc(C(=O)Nc4cc(C(F)(F)F)ccn4)cc3)c12 [Example 19, (S)-4-(8-amino-3-(3-cyclopropyl-5,6,7,8-tetrahydro-[1,2,4]triazolo[4,3-a]pyridin-8-yl)imidazo[1,5-a]pyrazin-1-yl)-N-(4-(trifluoromethyl)pyridin-2-yl)benzamide]",67
3,"Nc1nccn2c([C@H]3CCCn4c(C5CC5)nnc43)nc(-c3ccc(C(=O)Nc4cc(C(F)(F)F)ccn4)cc3)c12 [Example 20, (R)-4-(8-amino-3-(3-cyclopropyl-5,6,7,8-tetrahydro-[1,2,4]triazolo[4,3-a]pyridin-8-yl)imidazo[1,5-a]pyrazin-1-yl)-N-(4-(trifluoromethyl)pyridin-2-yl)benzamide]",56
4,"Cn1ncc2c1CCC[C@@H]2c1nc(-c2ccc(C(=O)Nc3cc(C(F)(F)F)ccn3)cc2)c2c(N)nccn12 [Example 24, (S)-4-(8-amino-3-(1-methyl-4,5,6,7-tetrahydro-1H-indazol-4-yl)imidazo[1,5-a]pyrazin-1-yl)-N-(4-(trifluoromethyl)pyridin-2-yl)benzamide]",740
5,"Cn1cc2c(n1)CCC[C@@H]2n1nc(-c2ccc(C(=O)Nc3cc(C(F)(F)F)ccn3)cc2)c2c(N)ncnc21 [Example 10, (S)-4-(4-amino-1-(2-methyl-4,5,6,7-tetrahydro-2H-indazol-4-yl)-1H-pyrazolo[3,4-d]pyrimidin-3-yl)-N-(4-(trifluoromethyl)pyridin-2-yl)benzamide]",83
6,"Cn1cc2c(n1)CCC[C@H]2n1nc(-c2ccc(C(=O)Nc3cc(C(F)(F)F)ccn3)cc2)c2c(N)ncnc21 [Example 8, (R)-4-(4-amino-1-(2-methyl-4,5,6,7-tetrahydro-2H-indazol-4-yl)-1H-pyrazolo[3,4-d]pyrimidin-3-yl)-N-(4-(trifluoromethyl)pyridin-2-yl)benzamide]",3.2
7,"Nc1ncnc2c1c(-c1ccc(C(=O)Nc3cc(C(F)(F)F)ccn3)cc1)nn2[C@H]1CCCc2[nH]ncc21 [Example 6, (S)-4-(4-amino-1-(4,5,6,7-tetrahydro-1H-indazol-4-yl)-1H-pyrazolo[3,4-d]pyrimidin-3-yl)-N-(4-(trifluoromethyl)pyridin-2-yl)benzamide]",60
8,"CC(C)Oc1ccnc(NC(=O)c2ccc(-c3nc(N4CCn5c(nnc5C(F)(F)F)C4)n4ccnc(N)c34)cc2)c1 [Example 25, 4-(8-amino-3-(3-(trifluoromethyl)-5,6-dihydro-[1,2,4]triazolo[4,3-a]pyrazin-7(8H)-yl)imidazo[1,5-a]pyrazin-1-yl)-N-(4-isopropoxypyridin-2-yl)benzamide]",43
9,"Nc1nccn2c([C@@H]3CCn4c(nnc4C(F)(F)F)C3)nc(-c3ccc(C(=O)Nc4cc(C(F)(F)F)ccn4)cc3)c12 [Example 22, (R)-4-(8-amino-3-(3-(trifluoromethyl)-5,6,7,8-tetrahydro-[1,2,4]triazolo[4,3-a]pyridin-7-yl)imidazo[1,5-a]pyrazin-1-yl)-N-(4-(trifluoromethyl)pyridin-2-yl)benzamide]",11
10,"CCn1cc2c(n1)CCC[C@H]2n1nc(-c2ccc(C(=O)Nc3cc(C(F)(F)F)ccn3)cc2)c2c(N)ncnc21 [Example 12, (R)-4-(4-amino-1-(2-ethyl-4,5,6,7-tetrahydro-2H-indazol-4-yl)-1H-pyrazolo[3,4-d]pyrimidin-3-yl)-N-(4-(trifluoromethyl)pyridin-2-yl)benzamide]",13
11,"Cn1ncc2c1CCC[C@H]2c1nc(-c2ccc(C(=O)Nc3cc(C(F)(F)F)ccn3)cc2)c2c(N)nccn12 [Example 23, (R)-4-(8-amino-3-(1-methyl-4,5,6,7-tetrahydro-1H-indazol-4-yl)imidazo[1,5-a]pyrazin-1-yl)-N-(4-(trifluoromethyl)pyridin-2-yl)benzamide]",1000
12,"CCn1cc2c(n1)CCC[C@@H]2n1nc(-c2ccc(C(=O)Nc3cc(C(F)(F)F)ccn3)cc2)c2c(N)ncnc21 [Example 14, (S)-4-(4-amino-1-(2-ethyl-4,5,6,7-tetrahydro-2H-indazol-4-yl)-1H-pyrazolo[3,4-d]pyrimidin-3-yl)-N-(4-(trifluoromethyl)pyridin-2-yl)benzamide]",54

# The next lines start with the values.
row,IC50 [nM],SMILES
1,1.1,"Nc1ncnc2c1c(-c1ccc(C(=O)Nc3cc(C(F)(F)F)ccn3)cc1)nn2[C@@H]1CCCc2c1cnn2CCO [Example 15, (R)-4-(4-amino-1-(1-(2-hydroxyethyl)-4,5,6,7-tetrahydro-1H-indazol-4-yl)-1H-pyrazolo[3,4-d]pyrimidin-3-yl)-N-(4-(trifluoromethyl)pyridin-2-yl)benzamide]"
2,0.45,"Nc1ncnc2c1c(-c1ccc(C(=O)Nc3cc(C(F)(F)F)ccn3)cc1)nn2[C@@H]1CCCc2nn(CCO)cc21 [Example 16, (R)-4-(4-amino-1-(2-(2-hydroxyethyl)-4,5,6,7-tetrahydro-2H-indazol-4-yl)-1H-pyrazolo[3,4-d]pyrimidin-3-yl)-N-(4-(trifluoromethyl)pyridin-2-yl)benzamide]"
3,0.52,"Nc1ncnc2c1c(-c1ccc(C(=O)Nc3cc(C(F)(F)F)ccn3)cc1)nn2[C@@H]1CCCc2[nH]ncc21 [Example 5, (R)-4-(4-amino-1-(4,5,6,7-tetrahydro-1H-indazol-4-yl)-1H-pyrazolo[3,4-d]pyrimidin-3-yl)-N-(4-(trifluoromethyl)pyridin-2-yl)benzamide]"
4,3.2,"CCn1ncc2c1CCC[C@H]2n1nc(-c2ccc(C(=O)Nc3cc(C(F)(F)F)ccn3)cc2)c2c(N)ncnc21 [Example 11, (R)-4-(4-amino-1-(1-ethyl-4,5,6,7-tetrahydro-1H-indazol-4-yl)-1H-pyrazolo[3,4-d]pyrimidin-3-yl)-N-(4-(trifluoromethyl)pyridin-2-yl)benzamide]"
5,0.81,"Nc1nccn2c([C@H]3CCn4c(nnc4C(F)(F)F)C3)nc(-c3ccc(C(=O)Nc4cc(C(F)(F)F)ccn4)cc3)c12 [Example 21, (S)-4-(8-amino-3-(3-(trifluoromethyl)-5,6,7,8-tetrahydro-[1,2,4]triazolo[4,3-a]pyridin-7-yl)imidazo[1,5-a]pyrazin-1-yl)-N-(4-(trifluoromethyl)pyridin-2-yl)benzamide]"
6,2,"Cn1ncc2c1CCC[C@]2(O)c1nc(-c2ccc(C(=O)Nc3cc(C(F)(F)F)ccn3)cc2)c2c(N)nccn12 [Example 3, (R)-4-(8-amino-3-(4-hydroxy-1-methyl-4,5,6,7-tetrahydro-1H-indazol-4-yl)imidazo[1,5-a]pyrazin-1-yl)-N-(4-(trifluoromethyl)pyridin-2-yl)benzamide]"
7,1.3,"Nc1ncnc2c1c(-c1ccc(C(=O)Nc3cc(C(F)(F)F)ccn3)cc1)nn2[C@H]1CCCc2nn(CCO)cc21 [Example 18, (S)-4-(4-amino-1-(2-(2-hydroxyethyl)-4,5,6,7-tetrahydro-2H-indazol-4-yl)-1H-pyrazolo[3,4-d]pyrimidin-3-yl)-N-(4-(trifluoromethyl)pyridin-2-yl)benzamide]"
